Assay results taken from the NIST ThermoML archive (doi:10.1016/j.fluid.2014.04.038).
“And” between values parts separate entries of the source, which are not always exact repeats. Identical values can stand only once. ± gives the expanded uncertainty stated by the source.

Details: Hot wire method

CCF [fluoroethane]
thermal conductivity (355.41 K, 2277.9 kPa, Gas): 0.02422 ± 0.0015 W/m/K
thermal conductivity (355.59 K, 2007.1 kPa, Gas): 0.02432 ± 0.0015 W/m/K
thermal conductivity (355.7 K, Liquid): 0.08043 ± 0.0032 W/m/K and 0.08031 ± 0.0032 W/m/K
thermal conductivity (355.71 K, Liquid): 0.08044 ± 0.0032 W/m/K
thermal conductivity (355.72 K, 1531.1 kPa, Gas): 0.02295 ± 0.0014 W/m/K
thermal conductivity (355.79 K, 2586.5 kPa, Gas): 0.02513 ± 0.0015 W/m/K
thermal conductivity (355.91 K, 2277.9 kPa, Gas): 0.02436 ± 0.0015 W/m/K
thermal conductivity (355.95 K, 2934.5 kPa, Gas): 0.0265 ± 0.0016 W/m/K
thermal conductivity (355.99 K, 1034.8 kPa, Gas): 0.02302 ± 0.0014 W/m/K
thermal conductivity (356.06 K, 2007.1 kPa, Gas): 0.02406 ± 0.0015 W/m/K
thermal conductivity (356.17 K, 611.2 kPa, Gas): 0.02275 ± 0.0014 W/m/K
thermal conductivity (356.26 K, 2586.5 kPa, Gas): 0.02498 ± 0.0015 W/m/K
thermal conductivity (356.27 K, 1531.1 kPa, Gas): 0.02331 ± 0.0014 W/m/K
thermal conductivity (356.32 K, 266.7 kPa, Gas): 0.02267 ± 0.0014 W/m/K
thermal conductivity (356.52 K, 2277.9 kPa, Gas): 0.02412 ± 0.0015 W/m/K
thermal conductivity (356.55 K, 1034.8 kPa, Gas): 0.0229 ± 0.0014 W/m/K
thermal conductivity (356.73 K, 2007.1 kPa, Gas): 0.02363 ± 0.0014 W/m/K
thermal conductivity (356.82 K, 611.2 kPa, Gas): 0.02305 ± 0.0014 W/m/K
thermal conductivity (357.02 K, 266.7 kPa, Gas): 0.02276 ± 0.0014 W/m/K
thermal conductivity (357.06 K, 1531.1 kPa, Gas): 0.02299 ± 0.0014 W/m/K
thermal conductivity (357.39 K, 1034.8 kPa, Gas): 0.02287 ± 0.0014 W/m/K
thermal conductivity (357.69 K, 611.2 kPa, Gas): 0.02264 ± 0.0014 W/m/K
thermal conductivity (357.98 K, 266.7 kPa, Gas): 0.02298 ± 0.0014 W/m/K
thermal conductivity (364.69 K, Liquid): 0.07657 ± 0.0031 W/m/K
thermal conductivity (364.71 K, Liquid): 0.07768 ± 0.0031 W/m/K
thermal conductivity (364.75 K, Liquid): 0.07676 ± 0.0031 W/m/K
thermal conductivity (364.77 K, 3438 kPa, Gas): 0.02941 ± 0.0018 W/m/K
thermal conductivity (364.87 K, 3960.3 kPa, Gas): 0.03259 ± 0.002 W/m/K
thermal conductivity (365.05 K, 2942.4 kPa, Gas): 0.02781 ± 0.0017 W/m/K
thermal conductivity (365.06 K, Liquid): 0.07678 ± 0.0031 W/m/K
thermal conductivity (365.08 K, Liquid): 0.07679 ± 0.0031 W/m/K and 0.07656 ± 0.0031 W/m/K
thermal conductivity (365.11 K, 3438 kPa, Gas): 0.02942 ± 0.0018 W/m/K
thermal conductivity (365.43 K, 2942.4 kPa, Gas): 0.02721 ± 0.0017 W/m/K
thermal conductivity (365.47 K, Liquid): 0.07603 ± 0.0031 W/m/K
thermal conductivity (365.52 K, Liquid): 0.07616 ± 0.0031 W/m/K
thermal conductivity (365.53 K, Liquid): 0.07615 ± 0.0031 W/m/K
thermal conductivity (365.62 K, 2506.8 kPa, Gas): 0.0257 ± 0.0016 W/m/K
thermal conductivity (365.62 K, 3718.5 kPa, Gas): 0.03133 ± 0.0019 W/m/K
thermal conductivity (365.65 K, 3438 kPa, Gas): 0.02965 ± 0.0018 W/m/K
thermal conductivity (365.98 K, 2942.4 kPa, Gas): 0.027 ± 0.0017 W/m/K
thermal conductivity (365.99 K, 2001.8 kPa, Gas): 0.02478 ± 0.0015 W/m/K
thermal conductivity (366.21 K, 2506.8 kPa, Gas): 0.02572 ± 0.0016 W/m/K
thermal conductivity (366.21 K, 3718.5 kPa, Gas): 0.03142 ± 0.0019 W/m/K
thermal conductivity (366.29 K, 533.7 kPa, Gas): 0.02342 ± 0.0014 W/m/K
thermal conductivity (366.42 K, 1515.5 kPa, Gas): 0.02467 ± 0.0015 W/m/K
thermal conductivity (366.63 K, 1029 kPa, Gas): 0.0243 ± 0.0015 W/m/K
thermal conductivity (366.67 K, 2001.8 kPa, Gas): 0.02473 ± 0.0015 W/m/K
thermal conductivity (366.76 K, 2506.8 kPa, Gas): 0.02558 ± 0.0016 W/m/K
thermal conductivity (367.1 K, 1515.5 kPa, Gas): 0.02393 ± 0.0015 W/m/K
thermal conductivity (367.32 K, 2001.8 kPa, Gas): 0.02511 ± 0.0015 W/m/K
thermal conductivity (367.38 K, 533.7 kPa, Gas): 0.0242 ± 0.0015 W/m/K
thermal conductivity (367.49 K, 1029 kPa, Gas): 0.02463 ± 0.0015 W/m/K
thermal conductivity (368.3 K, 533.7 kPa, Gas): 0.02352 ± 0.0014 W/m/K
thermal conductivity (368.41 K, 1515.5 kPa, Gas): 0.02402 ± 0.0015 W/m/K
thermal conductivity (368.9 K, 1029 kPa, Gas): 0.02415 ± 0.0015 W/m/K
thermal conductivity (373.83 K, 4470.3 kPa, Gas): 0.03726 ± 0.0023 W/m/K
thermal conductivity (373.99 K, 4470.3 kPa, Gas): 0.03714 ± 0.0023 W/m/K
thermal conductivity (374.47 K, 4470.3 kPa, Gas): 0.03687 ± 0.0023 W/m/K
thermal conductivity (374.47 K, Liquid): 0.07323 ± 0.0029 W/m/K
thermal conductivity (374.48 K, 2938.6 kPa, Gas): 0.02793 ± 0.0017 W/m/K
thermal conductivity (374.48 K, Liquid): 0.07368 ± 0.003 W/m/K and 0.07356 ± 0.003 W/m/K
thermal conductivity (374.62 K, 2478.9 kPa, Gas): 0.02638 ± 0.0016 W/m/K
thermal conductivity (374.67 K, 3543.9 kPa, Gas): 0.03045 ± 0.0019 W/m/K
thermal conductivity (374.7 K, 2119.8 kPa, Gas): 0.02585 ± 0.0016 W/m/K
thermal conductivity (374.81 K, Liquid): 0.07343 ± 0.003 W/m/K and 0.07344 ± 0.003 W/m/K
thermal conductivity (374.82 K, Liquid): 0.07343 ± 0.003 W/m/K
thermal conductivity (374.85 K, 1564.8 kPa, Gas): 0.02515 ± 0.0015 W/m/K
thermal conductivity (375.05 K, 2938.6 kPa, Gas): 0.02813 ± 0.0017 W/m/K
thermal conductivity (375.2 K, Liquid): 0.07321 ± 0.0029 W/m/K
thermal conductivity (375.21 K, Liquid): 0.07381 ± 0.003 W/m/K and 0.07357 ± 0.003 W/m/K
thermal conductivity (375.25 K, 2119.8 kPa, Gas): 0.02574 ± 0.0016 W/m/K
thermal conductivity (375.37 K, 364.6 kPa, Gas): 0.02485 ± 0.0015 W/m/K
thermal conductivity (375.68 K, 1564.8 kPa, Gas): 0.0258 ± 0.0016 W/m/K
thermal conductivity (375.8 K, 2478.9 kPa, Gas): 0.02745 ± 0.0017 W/m/K
thermal conductivity (375.94 K, 2119.8 kPa, Gas): 0.02613 ± 0.0016 W/m/K
thermal conductivity (376.1 K, 887.8 kPa, Gas): 0.02494 ± 0.0015 W/m/K
thermal conductivity (376.18 K, 1564.8 kPa, Gas): 0.02555 ± 0.0016 W/m/K
thermal conductivity (376.41 K, 364.6 kPa, Gas): 0.02448 ± 0.0015 W/m/K
thermal conductivity (376.83 K, 887.8 kPa, Gas): 0.02525 ± 0.0015 W/m/K
thermal conductivity (377.08 K, 364.6 kPa, Gas): 0.02454 ± 0.0015 W/m/K
thermal conductivity (377.36 K, 5247.3 kPa, Fluid (supercritical or subcritical phases)): 0.07905 ± 0.0048 W/m/K
thermal conductivity (377.63 K, 5247.3 kPa, Fluid (supercritical or subcritical phases)): 0.08228 ± 0.005 W/m/K
thermal conductivity (377.73 K, 5247.3 kPa, Fluid (supercritical or subcritical phases)): 0.08638 ± 0.0053 W/m/K
thermal conductivity (380.51 K, 5230.1 kPa, Fluid (supercritical or subcritical phases)): 0.05046 ± 0.0032 W/m/K
